Experiments:
[1] = test system: patients with mCRPC who progressed during or after docetaxel; settings: every 3 weeks with prednisone 10 mg daily; cabazitaxel 25 mg/m^2, mitoxantrone 12 mg/m^2; cited from earlier work
[2] = test system: mCRPC patients; settings: at 3 months; cited from earlier work
[3] = test system: mCRPC patients, safety population; experiment: Same clinical study: safety (adverse events, laboratory abnormalities, dose reductions); assay type: in vivo, human; settings: human, in vivo
Experimental: For patients in Arm A, cabazitaxel 25 mg/m^2 was administered intravenously over 1 hour every 3 weeks along with oral prednisone 10 mg given daily. Primary prophylactic granulocyte-colony stimulating factor (G-CSF) was required at each cycle for all patients in the cabazitaxel arm
For patients in Arm B, abiraterone acetate was administered orally at 1000 mg once daily along with oral prednisone 5 mg given twice daily or enzalutamide was administered orally at 160 mg once daily continuously. Abiraterone acetate was administered to patients who had received enzalutamide prior to study entry. Enzalutamide was administered to patients who received prior abiraterone acetate.
Cabazitaxel 25 mg/m^2, was administered intravenously over 1 hour every 3 weeks with oral prednisone 10 mg daily. Premedication included an antihistamine, glucocorticoid (dexamethasone 8 mg or equivalent), and histamine 2 receptor antagonist. Antiemetic prophylaxis was administered at physician's discretion. Primary prophylactic granulocyte-colony stimulating factor was required during each cycle of cabazitaxel. Patients received either abiraterone acetate (1000 mg orally once daily and oral prednisone 5 mg twice daily) or enzalutamide (160 mg orally once daily) continuously. A treatment cycle was 3 weeks in both arms. Abiraterone acetate was given to patients who previously received enzalutamide before study entry. Enzalutamide was given to patients who previously received abiraterone acetate.
Up to a maximum of 2 dose reductions was allowed per patient when necessary due to toxicity and according to the table below:
Efficacy analysis used all randomized patients. Stratified log-rank tests were used to analyze time-to-event data. The primary analysis compared radiographic progression-free survival between the two treatment groups using a stratified log-rank test. Survival curves were generated using Kaplan-Meier estimates. Hazard ratios and associated 95% confidence intervals [CI] were estimated using a stratified Cox proportional hazards model. Stratified Cochran-Mantel-Haenszel chi-square tests were used to analyze categorical data. Descriptive statistics were used to summarize patient characteristics. The safety population (randomized patients who received at least one dose of study treatment) was used for all safety analyses.

[4] = test system: mCRPC patients; settings: 3 months; cited from earlier work

In the case of `O=C1c2c(O)ccc(O)c2C(=O)c2c(NCCNCCO)ccc(NCCNCCO)c21` [mitoxantrone], the “Median overall survival, TROPIC trial” value [1] is given as 12.7 months.

In the case of `CNC(=O)c1ccc(N2C(=S)N(c3ccc(C#N)c(C(F)(F)F)c3)C(=O)C2(C)C)cc1F` [enzalutamide, 4-{3-[4-cyano-3-(trifluoromethyl)phenyl]-5,5-dimethyl-4-oxo-2-sulfanylideneimidazolidin-1-yl}-2-fluoro-N-methylbenzamide], the “Patients with imaging-based progression” value [2] is listed as “about 25%”.

In the case of `CC(=O)O[C@H]1CC[C@@]2(C)C(=CC[C@@H]3[C@@H]2CC[C@]2(C)C(c4cccnc4)=CC[C@@H]32)C1` [abiraterone acetate, (3β)-17-(3-pyridinyl) androsta-5,16-dien-3-yl acetate], the “At least one dose reduction required” value [3] is given as 17 patients and the “Patients with primary resistance, imaging-based progression at the first visit” value [4] is given as “about 30%”.
